Laboratory results reported in article PMC8878317, “Chemogenomics identifies acetyl-coenzyme A synthetase as a target for malaria treatment and prevention” (Cell Chemical Biology, 2022).

Assays:
Assay type in all cases: cell-based
[1] = tested on: P. falciparum Dd2:T648M (CRISPR edited PfAcAS); experiment: Blood-stage dose-response assay, CRISPR-edited Dd2:T648M line; conditions: Plasmodium falciparum, mean ± SD, n bioreplicates
Experimental: (§1) For in vitro–selected lines, drug susceptibility was measured by SYBR Green I–based assay ([Johnson et al., 2007]; [Smilkstein et al., 2004]). Ring-stage parasites were cultured for 72 hr at 1% hematocrit and 1% starting parasitemia in 384-well black clear-bottom plates containing test compounds plated in triplicate in 12-point serial dilutions. Lysis buffer (0.16% w/v saponin, 1.6% Triton X-100, 5 mM EDTA, and 20 mM Tris-HCl, pH 7.4) with SYBR Green I fluorescent dye (Invitrogen) was added, and fluorescence readings were taken (excitation at 494 nm, emission at 530 nm). Alternatively, Dd2-B2 ring-stage cultures at 0.3% parasitemia and 1% hematocrit were exposed for 72 hr to a range of ten drug concentrations that were 2-fold serially diluted in duplicates along with drug-free controls. Parasite survival was assessed by flow cytometry on an Accuri C6 (BD Biosciences) using SYBR Green and MitoTracker Deep Red FM (Life Technologies) as nucleic acid stain and vital dyes respectively. EC50 values were calculated using a nonlinear regression curve fit in Prism Software version 8 (GraphPad).
(§2) Mutant PfAcAS-A597V and PfAcAS-T648M parasites were generated using CRISPR/Cas9. The guide RNAs for PfAcAS-A597V (5′-[…]-3′; 5′-[…]-3′) and for PfAcAS-T648M (5′-[…]-3′) were designed using Benchling (https://benchling.com/) to targeting sites in PfAcAS that were 6-14 bp upstream of the A597 codon and 6 bp downstream of the T648 codon respectively. Complementary oligos encoding the gRNA sequences (5′- tatt[…]-3’ / 5’-aaac[…]-3’; 5’-tatt[…]-3’ / 5’-aaac[…]-3’ and 5’- tattg[…]-3’ / 5’-aaac[…]c-3’ ) were phosphorylated using T4 polynucleotide kinase and annealed (95°C for 5 min, then step down of 5°C/min to 25°C) prior to ligation into the BbsI-digested pDC2-coCas9-U6.2-hDHFR plasmid ([Lim et al., 2016]). The donor template for PfAcAS-A597V was synthesized (ThermoFisher) as a 700 bp Genestring fragment spanning position 1468 to 2168 of the PfAcAS gene, and the donor for PfAcAS-T648M synthesized as a 829 bp fragment spanning position 1468 to 2297 and inserted into the AatII/EcoRI sites of the pDC2-coCas9-gRNA-hDHFR plasmid by Gibson assembly. Ring-stage parasites (Dd2) at 5% parasitemia were transfected by electroporation (BioRad Gene Pulser II at 0.310 kV and 950 μF) with 50 μg of each plasmid (plasmid 1: pDC2-coCas9-AcAS-A597V-gRNA1-hDHFR, plasmid 2: pDC2-coCas9-gRNA2-hDHFR, or plasmid 3: pDC2-coCas9-AcAS-T648M-gRNA1-hDHFR), and parasites selected for 10 days with 2.5 nM WR99210 (Jacobus Pharmaceuticals), followed by removal of drug pressure. After confirmation of editing in the bulk culture, clones were isolated by serial limiting dilution and confirmed by Sanger sequencing after PCR amplification from genomic DNA using forward primer 5′-[…]-3′ and reverse primer 5′-[…]-3′ (for A597V) and 5′-[…]-3′ (for T648M).

[2] = tested on: P. falciparum Dd2:A597V (CRISPR edited PfAcAS); experiment: Blood-stage dose-response assay, CRISPR-edited Dd2:A597V line; conditions: Plasmodium falciparum, mean ± SD, n bioreplicates
Experimental: as §1, §2

[3] = tested on: P. falciparum Dd2-B2; experiment: Blood-stage dose-response assay (72 hr), Dd2 / Dd2-B2 parent; conditions: Plasmodium falciparum, DD2, read-out: Dd2-B2 parent EC50 ± SD (nM)
Experimental: (§3) The 3D7-A10 clone has been used in previous in vitro drug selection and sequencing efforts ([Cowell et al., 2018]). Dd2 parasites were obtained from T. Wellems (NIAID, NIH). Dd2-B2 is a genetically homogeneous line that was cloned from Dd2 by limiting dilution in the Fidock lab. Parasite strains were cultured in 3-5% human O+ hematocrit in RPMI 1640 (Life Technologies) supplemented with 28 mM NaHCO3, 25 mM HEPES, and hypoxanthine ([…]). Depending on the parasite line, the media either contained gentamycin (25 μg/mL), or no antibiotic and was additionally supplemented with 0.5% AlbuMAX II (Life Technologies) and/or O+ human serum (heat inactivated and pooled). Blood and serum products were obtained from Interstate Blood Bank. Cultures were maintained at 37°C in 1.1% O2, 4% CO2, and 95% N2. Parasite populations were synchronized by 5% sorbitol treatment ([Lambros and Vanderberg, 1979]).
as §1

[4] = tested on: P. falciparum 3D7-A10; experiment: Blood-stage dose-response assay (SYBR Green I, 72 hr), 3D7 / 3D7-A10 parent; conditions: Plasmodium falciparum, mean ± SD, n bioreplicates, read-out: 3D7-A10 parent EC50 ± SD
Experimental: as §3, §1

[5] = tested on: histone acetylation in P. falciparum 3D7-A10; experiment: Histone acetylation Western blot, wild-type 3D7-A10; conditions: trophozoites, 3 h exposure
Experimental: Synchronous trophozoite-stage (24-32hr post-invasion) cultures at 3–5% parasitemia and 2% hematocrit in complete medium were exposed to test compounds for 3 hr at 37°C. […] DMSO was tested at 0.1% as the vehicle-only control. Following drug exposure, parasites were isolated via saponin lysis ice-cold 0.1% saponin in phosphate-buffered saline (PBS). Isolated parasites were washed 3x in ice-cold PBS containing protease inhibitor cocktail (cOmplete mini, Roche) and lysed in 1x Laemmli Sample Buffer (Biorad) with 5% beta-mercaptoethanol (Sigma-Aldrich). Samples were heated at 99°C for 10 min before centrifugation. Equal quantities of solute were separated on Protean TGX Precast Gels (4–20% gradient) in Tris-SDS-glycine buffer, transferred to nitrocellulose membrane by iblot (Invitrogen), and blocked for 1h in tris-buffered saline (TBS) with 5% skim milk powder. Blocked membranes were probed with antibodies recognising tetra-acetylated H4 (H4ac4, Sigma-Aldrich 06–866), H4K8ac (CST #2594), H3K9ac (CST #9649) or H3 (CST #4499), at 1:1000 dilution, and PfBiP ([Shonhai et al., 2007]) (at 1:5000 dilution) in 3% milk powder TBS with 0.1% Tween 20 at 4°C overnight and with 800CW goat α-rabbit IgG (Licor) at 1:10,000 dilution. Membranes were visualised using a Licor Odyssey CLX imaging system and quantified using ImageJ.

SMILES | EC50 [1] | EC50 [2] | EC50 [3] | EC50 [4] | acetylation of H4K8ac, H3K9ac and tetra-acetylated H4 (H4Ac4) histone markers relative to DMSO [5]
OC(c1cc(C(F)(F)F)nc2c(C(F)(F)F)cccc12)C1CCCCN1 (centres unmarked) [Mefloquine] | 20 ± 11 nM | 31 ± 17 nM | 15 ± 5.7 nM | 18 ± 4.6 nM | 
CC(/C=C/C(=O)NO)=C\[C@@H](C)C(=O)c1ccc(N(C)C)cc1 [trichostatin A] |  |  |  |  | significant increase
